The source of these data is patent US10577378B2, “EIF4A-inhibiting compounds and methods related thereto” (eFFECTOR Therapeutics, Inc., priority 2015, dated 2020).

The assay relates to MDA-MB-231 human breast cancer cells. The assay is described as follows: Cell proliferation assay (CellTiter-Glo, 72 hours treatment). It counts as cell-based. The note with it: Homo sapiens; MDA-MB-231 cells, 72 hours at 37° C., CellTiter-Glo; read-out: MDA-MB-231 cell proliferation assay (IC50). The gist of the method:
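MDA-MB-231 cells seeded at 2,500 cells/well, treated next day with compound or DMSO vehicle for 72 h at 37 °C. Proliferation read by CellTiter-Glo; IC50 from sigmoidal non-linear regression, binned as +++ (<100 nM), ++ (100–1000 nM), + (>1000 nM).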
`Clc1cnc2c(c1)O[C@@]1(c3ccc(Br)cc3)[C@H](c3ccccc3)C[C@@H]3O[C@@]231` (racemic) [63F, Rac-(1aS,3S,3aR,8bS)-3a-(4-bromophenyl)-6-chloro-3-phenyl-1a,2,3,3a-tetrahydro-oxireno[2″,3″:1′,5′]cyclopenta[1′,2′:4,5]furo[3,2-b]pyridine]: the IC50 is more than 1000 nM. Consider `COc1cncc2c1[C@]1(O)[C@H](O)[C@H](CN)[C@@H](c3ccccc3)[C@]1(c1ccc(C#N)cc1)O2` (racemic) [65F, Rac-4-((4bS,5R,6S,7S,7aR)-6-(aminomethyl)-4b,5-dihydroxy-4-methoxy-7-phenyl-5,6,7,7a-tetrahydro-4bH-cyclopenta[4,5]furo[2,3-c]pyridin-7a-yl)benzonitrile], for which the IC50 lay in the range of 100 to 1000 nM. In the case of `COc1cncc2c1[C@]1(O)[C@H](O)[C@H](CN3CCN(C)CC3)[C@@H](c3ccccc3)[C@]1(c1ccc(C#N)cc1)O2` (racemic) [68F, Rac-4-((4bS,5R,6S,7S,7aR)-4b,5-dihydroxy-4-methoxy-6-((4-methylpiperazin-1-yl)methyl)-7-phenyl-4b,5,6,7-tetrahydro-7aH-cyclopenta[4,5]furo[2,3-c]pyridin-7a-yl)benzonitrile] it was 100 to 1000 nM; in that of `CNC[C@H]1[C@@H](O)[C@@]2(O)c3c(OC)cncc3O[C@@]2(c2ccc(C#N)cc2)[C@@H]1c1ccccc1` (racemic) [69F, Rac-4-((4bS,5R,6S,7S,7aR)-4b,5-dihydroxy-4-methoxy-6-((methylamino)methyl)-7-phenyl-4b,5,6,7-tetrahydro-7aH-cyclopenta[4,5]furo[2,3-c]pyridin-7a-yl)benzonitrile], 100 to 1000 nM.

Regarding `CCNC[C@@H]1[C@@H](c2ccccc2)[C@]2(C3=CC=C(C#N)CC3)Oc3cncc(OC)c3[C@]2(O)[C@@H]1O` (racemic) [70F, Rac-4-((4bS,5R,6S,7S,7aR)-6-((ethylamino)methyl)-4b,5-dihydroxy-4-methoxy-7-phenyl-4b,5,6,7-tetrahydro-7aH-cyclopenta[4,5]furo[2,3-c]pyridin-7a-yl)cyclohexa-1,3-diene-1-carbonitrile], the IC50 was 100 to 1000 nM. In the case of `COc1cncc2c1[C@]1(O)[C@H](O)[C@H](CN3CCC3)[C@@H](c3ccccc3)[C@]1(c1ccc(C#N)cc1)O2` (racemic) [71F, Rac-4-((4bS,5R,6S,7S,7aR)-6-(azetidin-1-ylmethyl)-4b,5-dihydroxy-4-methoxy-7-phenyl-4b,5,6,7-tetrahydro-7aH-cyclopenta[4,5]furo[2,3-c]pyridin-7a-yl)benzonitrile] it was less than 100 nM; in that of `COc1cncc2c1[C@]1(O)[C@H](O)[C@H](CN3CCCC3)[C@@H](c3ccccc3)[C@]1(c1ccc(C#N)cc1)O2` (racemic) [72F, rac-4-((4bS,5R,6S,7S,7aR)-4b,5-dihydroxy-4-methoxy-7-phenyl-6-(pyrrolidin-1-ylmethyl)-4b,5,6,7-tetrahydro-7aH-cyclopenta[4,5]furo[2,3-c]pyridin-7a-yl)benzonitrile], 100 to 1000 nM; in that of `CCN(C)C[C@H]1[C@@H](O)[C@@]2(O)c3c(OC)cncc3O[C@@]2(c2ccc(C#N)cc2)[C@@H]1c1ccccc1` (racemic) [74F, Rac-4-((4bS,5R,6S,7S,7aR)-6-((ethyl(methyl)amino)methyl)-4b,5-dihydroxy-4-methoxy-7-phenyl-4b,5,6,7-tetrahydro-7aH-cyclopenta[4,5]furo[2,3-c]pyridin-7a-yl)benzonitrile], less than 100 nM. In the case of `COc1cncc2c1[C@]1(O)[C@H](O)[C@H](CN(C)CCO)[C@@H](c3ccccc3)[C@]1(c1ccc(C#N)cc1)O2` (racemic) [75F, rac-4-((4bS,5R,6S,7S,7aR)-4b,5-dihydroxy-6-(((2-hydroxyethyl)(methyl)amino)methyl)-4-methoxy-7-phenyl-4b,5,6,7-tetrahydro-7aH-cyclopenta[4,5]furo[2,3-c]pyridin-7a-yl)benzonitrile] it was 100 to 1000 nM. Under `COc1cncc2c1[C@]1(O)[C@H](O)[C@H](CN(C)Cc3ccccc3)[C@@H](c3ccccc3)[C@]1(c1ccc(C#N)cc1)O2` (racemic) [76F, Rac-4-((4bS,5R,6S,7S,7aR)-6-((benzyl(methyl)amino)methyl)-4b,5-dihydroxy-4-methoxy-7-phenyl-4b,5,6,7-tetrahydro-7aH-cyclopenta[4,5]furo[2,3-c]pyridin-7a-yl)benzonitrile] stands less than 100 nM. `COc1cncc2c1[C@]1(O)[C@H](O)[C@H](CNCc3ccccc3)[C@@H](c3ccccc3)[C@]1(c1ccc(C#N)cc1)O2` (racemic) [77F, Rac-4-((4bS,5R,6S,7S,7aR)-6-((benzylamino)methyl)-4b,5-dihydroxy-4-methoxy-7-phenyl-4b,5,6,7-tetrahydro-7aH-cyclopenta[4,5]furo[2,3-c]pyridin-7a-yl)benzonitrile]: the IC50 is less than 100 nM. Take `COc1cncc2c1C1(O)[C@H](O)[C@H](CNCc3cccnc3)[C@@H](c3ccccc3)[C@]1(c1ccc(C#N)cc1)O2` (mixture of isomers) [78F, Rac-4-((5R,6S,7S,7aR)-4b,5-dihydroxy-4-methoxy-7-phenyl-6-(((pyridin-3-ylmethyl)amino)methyl)-4b,5,6,7-tetrahydro-7aH-cyclopenta[4,5]furo[2,3-c]pyridin-7a-yl)benzonitrile]: the IC50 fell in the range of 100 to 1000 nM. Under `COc1cncc2c1[C@]1(O)[C@H](O)[C@H](CNCCO)[C@@H](c3ccccc3)[C@]1(c1ccc(C#N)cc1)O2` (racemic) [79F, Rac-4-((4bS,5R,6S,7S,7aR)-4b,5-dihydroxy-6-(((2-hydroxyethyl)amino)methyl)-4-methoxy-7-phenyl-5,6,7,7a-tetrahydro-4bH-cyclopenta[4,5]furo[2,3-c]pyridin-7a-yl)benzonitrile] stands more than 1000 nM; under `CC(C)n1cc2c(n1)[C@]1(O)[C@H](O)[C@H](C(=O)N(C)C)[C@@H](c3ccccc3)[C@]1(c1ccc(C#N)cc1)O2` (racemic) [80F, rac-(4aR,5S,6R,7R,7aS)-4a-(4-cyanophenyl)-7,7a-dihydroxy-2-isopropyl-N,N-dimethyl-5-phenyl-2,4a,5,6,7,7a-hexahydrocyclopenta[4,5]furo[3,2-c]pyrazole-6-carboxamide], more than 1000 nM; under `CN(C)C(=O)[C@H]1[C@@H](O)[C@@]2(O)c3nn(C)c(C#N)c3O[C@@]2(c2ccc(C#N)cc2)[C@@H]1c1ccccc1` (racemic) [82F, Rac-(4aR,5S,6R,7R,7aS)-3-cyano-4a-(4-cyanophenyl)-7,7a-dihydroxy-N,N,2-trimethyl-5-phenyl-2,4a,5,6,7,7a-hexahydrocyclopenta[4,5]furo[3,2-c]pyrazole-6-carboxamide], more than 1000 nM.

Regarding `CS(=O)(=O)[C@H]1[C@@H](O)[C@@]2(O)c3ncc(Cl)cc3O[C@@]2(c2ccc(Br)cc2)[C@@H]1c1ccccc1` (racemic) [84F, Rac-(5aR,6S,7R,8S,8aS)-5a-(4-bromophenyl)-3-chloro-7-(methylsulfonyl)-6-phenyl-5a,6,7,8-tetrahydro-8aH-cyclopenta[4,5]furo[3,2-b]pyridine-8,8a-diol], the IC50 is more than 1000 nM. In the case of `CS(=O)(=O)[C@H]1[C@@H](O)[C@@]2(O)c3ncc(Cl)cc3O[C@@]2(c2ccc(C#N)cc2)[C@@H]1c1ccccc1` (racemic) [85F, Rac-4-((5aR,6S,7R,8S,8aS)-3-chloro-8,8a-dihydroxy-7-(methylsulfonyl)-6-phenyl-6,7,8,8a-tetrahydro-5aH-cyclopenta[4,5]furo[3,2-b]pyridin-5a-yl)benzonitrile] it was more than 1000 nM; in that of `COc1cncc2c1[C@]1(O)[C@H](O)[C@H](C(=O)N3CCOCC3)[C@@H](c3ccccc3)[C@]1(c1ccc(Br)cc1)O2` (racemic) [87F, Rac-((4bS,5R,6R,7S,7aR)-7a-(4-bromophenyl)-4b,5-dihydroxy-4-methoxy-7-phenyl-4b,6,7,7a-tetrahydro-5H-cyclopenta[4,5]furo[2,3-c]pyridin-6-yl)(morpholino)methanone], less than 100 nM. Under `COc1cncc2c1[C@]1(O)[C@H](O)[C@H](C(=O)N(C)CC(F)(F)F)[C@@H](c3ccccc3)[C@]1(c1ccc(Br)cc1)O2` (racemic) [88F, Rac-(4bS,5R,6R,7S,7aR)-7a-(4-bromophenyl)-4b,5-dihydroxy-4-methoxy-N-methyl-7-phenyl-N-(2,2,2-trifluoroethyl)-4b,6,7,7a-tetrahydro-5H-cyclopenta[4,5]furo[2,3-c]pyridine-6-carboxamide] stands less than 100 nM; under `COc1cncc2c1[C@]1(O)[C@H](O)[C@H](C(=O)NC3CC3)[C@@H](c3ccccc3)[C@]1(c1ccc(Br)cc1)O2` (racemic) [89F, Rac-(4bS,5R,6R,7S,7aR)-7a-(4-bromophenyl)-N-cyclopropyl-4b,5-dihydroxy-4-methoxy-7-phenyl-4b,6,7,7a-tetrahydro-5H-cyclopenta[4,5]furo[2,3-c]pyridine-6-carboxamide], less than 100 nM; under `COc1cncc2c1[C@]1(O)[C@H](O)[C@H](C(=O)NCC(F)(F)F)[C@@H](c3ccccc3)[C@]1(c1ccc(Br)cc1)O2` (racemic) [90F, Rac-(4bS,5R,6R,7S,7aR)-7a-(4-bromophenyl)-4b,5-dihydroxy-4-methoxy-7-phenyl-N-(2,2,2-trifluoroethyl)-4b,6,7,7a-tetrahydro-5H-cyclopenta[4,5]furo[2,3-c]pyridine-6-carboxamide], less than 100 nM. Take `O[C@@H]1C(F)(F)[C@@H](c2ccccc2)[C@]2(c3ccc(Br)cc3)Oc3cc(Cl)cnc3[C@]12O` (racemic) [91F, Rac-(5aR,6S,8S,8aS)-5a-(4-bromophenyl)-3-chloro-7,7-difluoro-6-phenyl-5a,6,7,8-tetrahydro-8aH-cyclopenta[4,5]furo[3,2-b]pyridine-8,8a-diol]: the IC50 is more than 1000 nM.

Consider `O[C@@H]1C2(CC2)[C@@H](c2ccccc2)[C@]2(c3ccc(Br)cc3)Oc3cc(Cl)cnc3[C@]12O` (racemic) [92F, Rac-(5aR,6R,8R,8aS)-5a-(4-bromophenyl)-3-chloro-6-phenyl-5a,6-dihydrospiro[cyclopenta[4,5]furo[3,2-b]pyridine-7,1′-cyclopropane]-8,8a(8H)-diol], for which the IC50 is more than 1000 nM.
